Assay results published in patent publication US9073936B2, “Organic compounds” (INTRA-CELLULAR THERAPIES, INC., priority 2013, dated 2015).

Legend:
[1] = Metabolism rates in human liver microsomes (stability); assay type: in vitro ADME; conditions: pooled human liver microsomes, pH 7.5, 0.5 mg/ml protein, 1 μM test compound, NADPH, 37° C., read-out: T1/2 in human liver microsomes
Protocol: Pooled human liver microsomes (final protein concentration 0.5 mg/ml) are incubated with test compound (final concentration 1 μM) in the presence of a NADPH regenerating system. The final buffer composition is: 1 mM EDTA, 100 mM potassium phosphate pH 7.5. The reactions are initiated by addition of the cofactor NADPH, and terminated after a 0, 15, 30, 45 and 60 minute incubation at 37° C. by addition of cold acetonitrile containing the internal analysis standard. After centrifuging at 4000 rpm for 20 minutes at 4° C., the supernatant are transferred for analysis using HPLC/MS/MS to measure the disappearance of the test compound. The percentage of the test compound remaining over time is calculated relative to the zero time point. The intrinsic clearance rates were calculated based on percentage of compound remaining at the 15-60 min. time points.

[2] = tested on: rats; assay: Novel Object Recognition assay; assay type: in vivo; conditions: rat, PO, dosed 2 hours before T1, 24 h interval
Source text: To measure the cognition-enhancing effects of the compounds of the invention, the candidate compounds may be evaluated in a Novel Object Recognition (NOR) assay. This assay protocol is described in detail in Ennaceur et al., Behav. Brain Res. (1988) 31:47-59 and Prickaerts et al., Eur. J. Pharmacol. (1997) 337:125-136, the contents of each of which are incorporated by reference in their entirety. In this protocol, the rats are introduced to a chamber at time T1 and allowed to interrogate two identical “familiar objects” for six minutes. Twenty-four hours later, they are re-introduced to this chamber, where one of the familiar objects has been replaced with a novel object. The “discrimination index”, a measure of the time spent in close proximity to the novel over the familiar object, may then be measured. Since rodents will forget the original experiment at T1 within 4 hours, this test with a 24 h interval is a measure of strong cognitive enhancement.
This assay protocol can be modified in order to evaluate different phases of memory. There are three general phases of memory, namely, acquisition, consolidation and retrieval. In this modified protocol, the rats may be dosed with the candidate compound two hours before T1 and tested 24 h later without additional dosing. This is a test of the acquisition process. […]

[3] = tested on: C57BL/6 mice; assay: Haloperidol induced catalepsy model (bar grip test); assay type: in vivo, mouse; conditions: haloperidol 3 mg/Kg PO, step down latency
Source text: To evaluate the potential beneficial effects to motor defects present in schizophrenics treated with typical and atypical antipsychotic agents and in Parkinson's disease patients, the compounds of the invention may be tested in a reversal of catalepsy model in which motor freezing, or catalepsy, is induced by potent dopamine D2 receptor antagonists such as haloperidol or risperidone. The method uses the “bar grip test”, in which the front paws of the mouse are placed so as to grip a 3 mm-diameter, suspended wooden bar. A “step down latency” is measured by recording the time until the mouse removes its paws from the wooden bar to the floor surface. Catalepsy is a freezing of the musculature that prevents the mouse from moving off the bar. […]
A catalepsy score is recorded for each mouse at 2, 3, 4, and 6 hours after administration of drugs. […] The latency until the mouse steps both paws down from the bar to the floor surface (i.e., step down latency) is recorded up to 120 sec. […] If none of the 10 attempts are beyond 10 sec, the longest duration recorded is used as the catalepsy score. Otherwise, the initial cataleptic duration (>10 sec) is recorded during the 120 sec testing time. Mean step down latency is calculated for each treatment group.

[4] = target: PDE1; assay: PDE1 inhibition in vitro, IMAP phosphodiesterase assay; assay type: biochemical; conditions: cGMP-fluorescein substrate, read-out: IC50 (PDE1 inhibitory activity)
Source text: (§1) Phosphodiesterase 1 (PDE1) is a calcium/calmodulin dependent phosphodiesterase enzyme that converts cyclic guanosine monophosphate (cGMP) to 5′-guanosine monophosphate (5′-GMP). PDE1 can also convert a modified cGMP substrate, such as the fluorescent molecule cGMP-fluorescein, to the corresponding GMP-fluorescein. The generation of GMP-fluorescein from cGMP-fluorescein can be quantitated, using, for example, the IMAP (Molecular Devices, Sunnyvale, Calif.) immobilized-metal affinity particle reagent.
(§2) Briefly, the IMAP reagent binds with high affinity to the free 5′-phosphate that is found in GMP-fluorescein and not in cGMP-fluorescein. The resulting GMP-fluorescein-IMAP complex is large relative to cGMP-fluorescein. Small fluorophores that are bound up in a large, slowly tumbling, complex can be distinguished from unbound fluorophores, because the photons emitted as they fluoresce retain the same polarity as the photons used to excite the fluorescence.
(§3) In the phosphodiesterase assay, cGMP-fluorescein, which cannot be bound to IMAP, and therefore retains little fluorescence polarization, is converted to GMP-fluorescein, which, when bound to IMAP, yields a large increase in fluorescence polarization (Δmp). Inhibition of phosphodiesterase, therefore, is detected as a decrease in Δmp.
Materials: All chemicals are available from Sigma-Aldrich (St. Louis, Mo.) except for IMAP reagents (reaction buffer, binding buffer, FL-GMP and IMAP beads), which are available from Molecular Devices (Sunnyvale, Calif.).
Assay: The following phosphodiesterase enzymes may be used: 3′,5′-cyclic-nucleotide-specific bovine brain phosphodiesterase (Sigma, St. Louis, Mo.) and recombinant full length human PDE1A and PDE1B (r-hPDE1A and r-hPDE1B, respectively) which may be produced e.g., in HEK or SF9 cells by one skilled in the art. The PDE1 enzyme is reconstituted with 50% glycerol to 2.5 U/ml. One unit of enzyme will hydrolyze 1.0 μmole of 3′,5′-cAMP to 5′-AMP per min at pH 7.5 at 30° C. […] 99 μl of diluted enzyme solution is added into each well in a flat bottom 96-well polystyrene plate to which 1 μl of test compound dissolved in 100% DMSO is added. The test compounds are mixed and pre-incubated with the enzyme for 10 min at room temperature.
(§4) The plate is incubated at room temperature for 1 hour to allow IMAP binding to proceed to completion, and then placed in an Envision multimode microplate reader (PerkinElmer, Shelton, Conn.) to measure the fluorescence polarization (Δmp).
(§5) A decrease in GMP concentration, measured as decreased Δmp, is indicative of inhibition of PDE activity.

[5] = target: recombinant full length human PDE1A (r-hPDE1A) (Homo sapiens (Human), UniProt P54750); assay: PDE1 inhibition in vitro, IMAP phosphodiesterase assay (r-hPDE1A); assay type: biochemical
Source text: as §1, §2, §3
(§6) Materials: All chemicals are available from Sigma-Aldrich (St. Louis, Mo.) except for IMAP reagents (reaction buffer, binding buffer, FL-GMP and IMAP beads), which are available from Molecular Devices (Sunnyvale, Calif.). […]
as §4, with “The reaction is incubated in dark at room temperature for 15 min. […] The” for “The”
as §5

[6] = target: recombinant full length human PDE1B (r-hPDE1B) (Homo sapiens (Human), UniProt Q01064); assay: PDE1 inhibition in vitro, IMAP phosphodiesterase assay (r-hPDE1B); assay type: biochemical
Source text: as §1, §2, §3, §6
as §4, with “The reaction is incubated in dark at room temperature for 15 min. […] The” for “The”
as §5

| half-life at 1 μM [1] [h] | IC50 [4] [nM] | Ki [5] [nM] | Ki [6] [nM] | SMILES | minimal effective dose, Novel Object Recognition [2] [mg/kg] | minimal effective dose, catalepsy model [3] [mg/kg] |
| --- | --- | --- | --- | --- | --- | --- |
| – | ≤ 5 | 0.5 | 4 | CC(O)c1ccc(Cn2nc3c(c2Nc2ccc(F)cc2)C(=O)N(C)C2=NC(C)(C)CN23)cc1 (stereo not drawn) [Example 2, 7,8-Dihydro-2-(4-(1-hydroxyethyl)benzyl)-3-(4-fluorophenylamino)-5,7,7-trimethyl-[2H]-imidazo-[1,2-a]pyrazolo[4,3-e]pyrimidin-4(5H)-one] | – | – |
| 1.3 | ≤ 5 | 0.3 | 4 | CC(=O)c1ccc(Cn2nc3c(c2Nc2ccc(F)c(F)c2)C(=O)N(C)C2=NC(C)(C)CN23)cc1 [Example 3, 7,8-Dihydro-2-(4-acetylbenzyl)-3-(3,4-difluorophenylamino)-5,7,7-trimethyl-[2H]-imidazo-[1,2-a]pyrazolo[4,3-e]pyrimidin-4(5H)-one] | – | – |
| 1.12 | ≤ 5 | 0.1 | 0.4 | CC(=O)c1ccc(Cn2nc3c(c2Nc2ccc(F)c(C)c2)C(=O)N(C)C2=NC(C)(C)CN23)cc1 [Example 4, 7,8-Dihydro-2-(4-acetylbenzyl)-3-(4-fluoro-3-methylphenylamino)-5,7,7-trimethyl-[2H]-imidazo-[1,2-a]pyrazolo[4,3-e]pyrimidin-4(5H)-one] | – | – |

| SMILES | half-life at 1 μM [1] [h] | IC50 [4] [nM] | Ki [5] [nM] | Ki [6] [nM] | minimal effective dose, Novel Object Recognition [2] [mg/kg] | minimal effective dose, catalepsy model [3] [mg/kg] |
| --- | --- | --- | --- | --- | --- | --- |
| CC(=O)c1ccc(Cn2nc3c(c2Nc2ccc(F)cc2)C(=O)N(C)C2=NC(C)(C)CN23)cc1 [Example 1, 7,8-Dihydro-2-(4-acetylbenzyl)-3-(4-fluorophenylamino)-5,7,7-trimethyl-[2H]-imidazo-[1,2-a]pyrazolo[4,3-e]pyrimidin-4(5H)-one] | 2.85 | ≤ 5 | – | – | 0.1 | 0.1 |
